A short description of data set [1]: Phase 2 study, Main Study: pharmacokinetics (vadadustat and vadadustat-O-glucuronide concentration). The data set is classed as in vivo, human. On the procedure:
(§1) PK/PD Endpoints. An exposure-response analysis of vadadustat and PD measures were conducted as deemed appropriate. The PK parameters included (but were not limited to) the following: area under concentration-time curve from dosing to last measurable concentration (AUClast), area under concentration-time curve from dosing to infinity (AUCinf), Cmax, apparent total body clearance (CL/F), apparent volume of distribution (Vd/F), and terminal half-life (t1/2). The PD parameters included (but were not limited to) the following: EPO, reticulocytes, iron, ferritin, TIBC, and hepcidin.
(§2) PK population: included all randomized subjects who received study drug (vadadustat or epoetin alfa) and had enough drug concentrations to estimate AUC and Cmax. Analysis of this population was based on the dose amount taken at the date of PK sampling for the vadadustat group.

A further data set concerns erythropoietin (EPO). Put plainly: Phase 2 study, Main Study: pharmacodynamics, Baseline-Unadjusted serum EPO concentration. It is filed as in vivo, human. On the procedure:
as §1, §2
PD parameters for serum EPO concentration are presented by epoetin alfa stratification for vadadustat treatment groups in Table 7, Table 8a and Table 8b (baseline-unadjusted) and Table 9, Table 10a and Table 10b (baseline-adjusted).

Where [2] appears, read: low epoetin alfa stratum, Week 1 and Week 1+1 day.

The source of these data is patent US12697330B2, “Therapeutic methods using vadadustat” (Akebia Therapeutics, Inc., priority 2021, dated 2026).

Take `O=C(O)CNC(=O)c1ncc(-c2cccc(Cl)c2)cc1O` [vadadustat, {[5-(3-chlorophenyl)-3-hydroxypyridine-2-carbonyl]amino}acetic acid]: the concentrations versus dose result in data set [1] (TIW group) is “No dose dependent increases in concentrations”. Further, the “mean concentration versus time profiles, dose dependency” value in data set [1] (Week 1, Week 1+1 day, and Week 11) is “concentrations increased with dose levels”. Besides, the “EPO concentration versus dose” value in the data set on erythropoietin (EPO) (high epoetin alfa stratum) was “No particular trend”; with erythropoietin (EPO) (low epoetin alfa stratum, Week 1 and Week 1+1 day (300, 450 mg), Week 11 (150 to 600 mg)), “Dose dependent increases in EPO concentrations”. Besides, the “EPO Cmax versus dose” value in the data set with erythropoietin (EPO) (high epoetin alfa stratum, Week 1) is “dose dependent”. In addition, in the data set with erythropoietin (EPO) (setting [2]), the “EPO Cmax and AUC versus comparator” value is “lower compared to the epoetin alfa treatment group”. For the same molecule, the “EPO Cmax and AUC versus dose” value in the data set on erythropoietin (EPO) (setting [2]) is recorded as “dose proportional”.
